By IC50 is commonly meant the point on the concentration scale where inhibition reaches its midpoint. The low end stands for inhibition by little substance, the high end for a need for much substance.

SMILES strings stand for the structures.

The values that follow come from US11691968B2, “Compound having KDM5 inhibitory activity and pharmaceutical use thereof” (ONO PHARMACEUTICAL CO., LTD., priority 2020, dated 2023).

The nature of data set [1]: Metabolic Stability in Human Liver Microsomes. The class given is in vitro ADME. The protocol:
Metabolic Stability in Human Liver Microsomes
Human liver microsome (BD Gentest Corporation, Cat No. #452161) incubations were conducted in duplicate in 96-well plates. Each well contains 40 μL of 0.1 M potassium phosphate buffer (pH 7.4), 4.125 mM MgCl2, 0.625 mg/mL liver microsomes, and test compound (1.25 μM). After 5-min preincubation at 37° C., 10 uL of 5.0 mM NADPH in 0.1M potassium phosphate buffer was added to initiate the enzymatic reaction. The final component concentrations are 0.1M potassium phosphate buffer (pH 7.4), 1.0 mM NADPH, 3.3 mM MgCl2, 0.5 mg/mL liver microsomes, and test compound (1.0 μM). Reactions were terminated at 0 and 60 min by adding 200 μL of ice-cold acetonitrile containing internal standard.
LC-MS/MS analysis was conducted as specified below.
The remaining at 60 min (%) of test compound was calculated from the peak area ratio (test compound/internal standard) of samples collected 0 and 60 min after the start of the reaction according to the formula described below. Remaining at 60 min (%)=peak area ratio of sample collected at 60 min/peak area ratio of sample collected at 0 min×100 [Results]
In general terms: Microsomes from liver hold many membrane-bound enzymes, among them those of drug oxidation.

The target in the next data set is KDM5A (Homo sapiens (Human), UniProt P29375). Description: Biochemical KDM5A Inhibition Assay (HTRF). As to conditions: KDM5A protein, biotin-labelled H3K4-Me3 substrate. The procedure: Biochemical KDM5A Inhibition Assay
Using 384-well white Greiner784075 (Greiner), representative compounds were characterized for their inhibition of KDM5A using HTRF® technology (Cisbio Bioassays). Briefly, the test compounds, reference compounds, and DMSO control (typical compound concentration range 1 μM-[…], final assay concentration (FAC*) of DMSO 0.5%) were added to 384-well plate by the Echo® acoustic dispensing platform (Labcyte). Five (5) 1l of KDM5A protein (produced by the method described in Nat Chem Biol 12, 531-538 (2016)). (5-20 nM FAC*) in assay buffer (50 mM MES, 50 mM NaCl, 1 mM TCEP, 0.01% v/v Tween 20, 0.03% BSA, pH 6.5) was added to wells and plates were incubated for 10-20 minutes at 25 degrees celsius. Then, 5 μl of alpha-ketoglutaric acid (100 μM FAC*), biotin-labelled H3K4-Me3 substrate (Anaspec Cat #AS-64357-1; 200 nM FAC*), Fe(II)SO4 (100 μM FAC*) and ascorbic acid (2 mM FAC*) in assay buffer was added to wells and plates were incubated for 20 minutes at room temperature. The reaction was stopped with the addition of 10 μl of anti-H3K4-Me2-Eu(K) (Cisbio Bioassays Cat #61KA2KAH; 0.75 nM FAC**)+Streptavidin XL665 (Cisbio Bioassays Cat #610SAXLB; 25 nM FAC**) in HTRF detection buffer (Cisbio Bioassays Cat #62SDBRDF). The mixture was incubated for 30 minutes at room temperature before 340 nm excitation and measurement of dual emission at 620 nm and 665 run. *FAC: final assay concentration calculated based on 10 μl of the assay buffer**FAC: final assay concentration calculated based on 20 μl of the detection buffer
The raw data (a 665 nm and a 620 nm reading from each well) for individual assay plates were analyzed. The ratio of emissions was calculated using the following calculation: Ratio=(665 nm emission/620 nm emission)×10000. […] Compound IC50 values were calculated from graphs of % inhibition plotted against compound concentration, using a four parameter curve fit. [Results]

[2] abbreviates: 0.5 mg/mL liver microsomes, 1.0 μM test compound, 1.0 mM NADPH, 37° C., 60 min.

Sequence of KDM5A (P29375 whole entry): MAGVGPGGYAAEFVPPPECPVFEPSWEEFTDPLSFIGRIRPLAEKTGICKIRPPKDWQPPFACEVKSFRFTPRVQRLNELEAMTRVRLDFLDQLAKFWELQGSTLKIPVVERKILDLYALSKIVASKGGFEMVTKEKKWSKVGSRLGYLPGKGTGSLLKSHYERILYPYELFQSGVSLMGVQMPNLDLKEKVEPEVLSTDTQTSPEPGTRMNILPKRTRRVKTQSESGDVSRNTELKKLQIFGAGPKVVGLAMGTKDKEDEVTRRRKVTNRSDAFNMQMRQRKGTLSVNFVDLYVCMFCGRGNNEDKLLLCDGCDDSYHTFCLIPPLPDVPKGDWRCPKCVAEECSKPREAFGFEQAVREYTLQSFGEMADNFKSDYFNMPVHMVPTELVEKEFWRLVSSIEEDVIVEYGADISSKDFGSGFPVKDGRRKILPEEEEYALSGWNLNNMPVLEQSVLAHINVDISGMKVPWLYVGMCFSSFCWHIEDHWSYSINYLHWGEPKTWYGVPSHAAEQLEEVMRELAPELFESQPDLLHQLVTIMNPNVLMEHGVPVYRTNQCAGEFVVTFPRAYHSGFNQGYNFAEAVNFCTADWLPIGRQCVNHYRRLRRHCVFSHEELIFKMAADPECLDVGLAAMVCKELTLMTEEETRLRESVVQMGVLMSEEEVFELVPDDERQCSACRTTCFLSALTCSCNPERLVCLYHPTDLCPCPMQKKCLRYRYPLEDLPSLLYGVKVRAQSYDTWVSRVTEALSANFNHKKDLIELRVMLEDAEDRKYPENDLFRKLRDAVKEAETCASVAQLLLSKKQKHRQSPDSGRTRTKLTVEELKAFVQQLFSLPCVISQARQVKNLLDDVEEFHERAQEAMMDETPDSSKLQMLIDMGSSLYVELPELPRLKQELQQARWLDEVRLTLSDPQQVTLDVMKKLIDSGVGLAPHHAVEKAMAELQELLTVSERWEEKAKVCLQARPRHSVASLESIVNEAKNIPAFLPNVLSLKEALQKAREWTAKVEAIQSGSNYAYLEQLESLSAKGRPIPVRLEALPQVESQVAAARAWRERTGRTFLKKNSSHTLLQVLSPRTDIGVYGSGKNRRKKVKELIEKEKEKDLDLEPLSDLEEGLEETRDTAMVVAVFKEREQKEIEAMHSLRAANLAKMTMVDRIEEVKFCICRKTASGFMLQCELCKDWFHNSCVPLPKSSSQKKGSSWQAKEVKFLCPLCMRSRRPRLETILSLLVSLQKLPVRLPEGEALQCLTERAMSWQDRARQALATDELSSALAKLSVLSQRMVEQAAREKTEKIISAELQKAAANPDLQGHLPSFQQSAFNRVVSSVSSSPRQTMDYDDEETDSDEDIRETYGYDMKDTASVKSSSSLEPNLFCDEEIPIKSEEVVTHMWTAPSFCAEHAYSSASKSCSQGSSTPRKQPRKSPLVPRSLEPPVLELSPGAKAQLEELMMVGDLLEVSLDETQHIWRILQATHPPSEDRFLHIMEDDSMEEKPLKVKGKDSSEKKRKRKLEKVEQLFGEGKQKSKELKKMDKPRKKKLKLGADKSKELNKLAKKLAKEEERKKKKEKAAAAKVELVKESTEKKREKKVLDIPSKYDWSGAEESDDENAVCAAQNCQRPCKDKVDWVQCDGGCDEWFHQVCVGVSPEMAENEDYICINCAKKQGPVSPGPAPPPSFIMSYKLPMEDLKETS

Take `CC1CC(C2[C@H]3CN(C(=O)c4cc(C(C)C)[nH]n4)C[C@@H]23)=NO1` (stereo partly drawn) [Example 93, (5-isopropyl-1H-pyrazol-3-yl)[(1R,5S,6r)-6-(5-methyl-4,5-dihydro-1,2-oxazol-3-yl)-3-azabicyclo[3.1.0]hex-3-yl]methanone]: in data set [1] (human, microsomes, 1 h), the “Metabolic stability in human liver microsomes (% remaining at 60 min)” value (“Metabolic stability … (% remaining at 60 min)” below) stood at 86%. Moreover, half-maximal inhibition against KDM5A (IC50) required 200 nM.

Regarding `CC(C)NC(=O)[C@H]1[C@@H]2CN(C(=O)c3cc(C(C)C)[nH]n3)C[C@@H]21` [Example 136, (1R,5S,6r)-N-(propan-2-yl)-3-[5-(propan-2-yl)-1H-pyrazole-3-carbonyl]-3-azabicyclo[3.1.0]hexane-6-carboxamide], in data set [1] (human, microsomes, 1 h), the “Metabolic stability … (% remaining at 60 min)” value came out at 97%. At KDM5A, this molecule returned an IC50 of 50 nM.

On to `COc1ccc2nnc([C@H]3[C@@H]4CN(C(=O)c5cc(C(C)C)[nH]n5)C[C@@H]43)n2c1` [Example 131, (5-isopropyl-1H-pyrazol-3-yl)[(1R,5S,6r)-6-(6-methoxy[1,2,4]triazolo[4,3-a]pyridin-3-yl)-3-azabicyclo[3.1.0]hex-3-yl]methanone], for which, in data set [1] (human, microsomes, 1 h), the “Metabolic stability … (% remaining at 60 min)” value is 84%. The molecule also gave an IC50 against KDM5A of 10 nM.

As for `CC(C)c1cc(C(=O)N2C[C@@H]3[C@H](C2)[C@@]3(C)C(=O)NC(C)(C)C)n[nH]1` [Example 145, (1R,5S,6r)-N-tert-butyl-6-methyl-3-[5-(propan-2-yl)-1H-pyrazole-3-carbonyl]-3-azabicyclo[3.1.0]hexane-6-carboxamide], in data set [1] (human, microsomes, 1 h), the “Metabolic stability … (% remaining at 60 min)” value turned out to be 99%. At KDM5A, this molecule returned a concentration for half-maximal inhibition (IC50) of 90 nM.

Turning to `Cc1csc(C(=O)[C@H]2[C@@H]3CN(C(=O)c4cn(C(C)C)cn4)C[C@@H]32)c1` [Example 77, (1-isopropyl-1H-imidazol-4-yl){(1R,5S,6r)-6-[(4-methyl-2-thienyl)carbonyl]-3-azabicyclo[3.1.0]hex-3-yl}methanone], on KDM5A, half-maximal inhibition (IC50) required 20 nM.

With `CC(C)c1cc(C(=O)N2C[C@@H]3[C@H](C2)[C@H]3c2nnn3ccccc23)n[nH]1` [Example 132, (5-isopropyl-1H-pyrazol-3-yl)[(1R,5S,6r)-6-([1,2,3]triazolo[1,5-a]pyridin-3-yl)-3-azabicyclo[3.1.0]hex-3-yl]methanone], half-maximal inhibition at KDM5A (IC50) was put at 40 nM.

On to `CC(C)n1cnc(C(=O)N2C[C@@H]3[C@H](C2)[C@H]3C(=O)N(C)C2(C#N)CC2)c1` [Example 69, (1R,5S,6r)-N-(1-cyanocyclopropyl)-N-methyl-3-[1-(propan-2-yl)-1H-imidazole-4-carbonyl]-3-azabicyclo[3.1.0]hexane-6-carboxamide], for which the “Metabolic stability … (% remaining at 60 min)” value in data set [1] (setting [2]) was 89%. Moreover, half-maximal inhibition at KDM5A (IC50) was put at 200 nM.

Turning to `CC(C)n1cnc(C(=O)N2C[C@@H]3[C@H](C2)[C@H]3c2nnn[nH]2)c1` [Example 63, (1-isopropyl-1H-imidazol-4-yl)[(1R,5S,6r)-6-(1H-tetrazol-5-yl)-3-azabicyclo[3.1.0]hex-3-yl]methanone], the 50% inhibitory concentration (IC50) against KDM5A turned out to be 10 nM.

On KDM5A, `C[C@@H](c1ccccc1C#N)n1cnc(C(=O)N2C[C@@H]3[C@H](C2)[C@H]3C2=NOC(C)(C)C2)c1` [Example 22, 2-[(1S)-1-(4-{[(1R,5S,6S)-6-(5,5-dimethyl-4,5-dihydro-1,2-oxazol-3-yl)-3-azabicyclo[3.1.0]hex-3-yl]carbonyl}-1H-imidazol-1-yl)ethyl]benzonitrile] returned an IC50 of 400 nM.

As to `CCN1C([C@H]2[C@@H]3CN(C(=O)c4cn(C(C)C)cn4)C[C@@H]32)=NOC1(C)C` [Example 60, [(1R,5S,6r)-6-(4-ethyl-5,5-dimethyl-4,5-dihydro-1,2,4-oxadiazol-3-yl)-3-azabicyclo[3.1.0]hex-3-yl](1-isopropyl-1H-imidazol-4-yl)methanone], in data set [1] (human, microsomes, 1 h), the “Metabolic stability … (% remaining at 60 min)” value is listed as 102%. Moreover, the midpoint of inhibition against KDM5A, the IC50, lay at 200 nM.

As to `CCN1C([C@H]2[C@@H]3CN(C(=O)c4cc(C(C)C)[nH]n4)C[C@@H]32)=NOC1(C)C` [Example 110, [(1R,5S,6r)-6-(4-ethyl-5,5-dimethyl-4,5-dihydro-1,2,4-oxadiazol-3-yl)-3-azabicyclo[3.1.0]hex-3-yl](5-isopropyl-1H-pyrazol-3-yl)methanone], in data set [1] (human, microsomes, 1 h), the “Metabolic stability … (% remaining at 60 min)” value is 85%. At KDM5A, the midpoint of inhibition, the IC50, lay at 50 nM.

With `C[C@]1(C2=NOC3(CC3)C2)[C@@H]2CN(C(=O)c3cc(C4CC4)[nH]n3)C[C@@H]21` [Example 144, (5-cyclopropyl-1H-pyrazol-3-yl)[(1R,5S,6r)-6-methyl-6-(4-oxa-5-azaspiro[2.4]hept-5-en-6-yl)-3-azabicyclo[3.1.0]hex-3-yl]methanone], the “Metabolic stability … (% remaining at 60 min)” value in data set [1] (setting [2]) worked out at 101%. The IC50 on KDM5A worked out at 20 nM.

With `CC(C)n1cnc(C(=O)N2C[C@@H]3[C@H](C2)[C@H]3C(=O)c2cccs2)c1` [Example 76, (1-isopropyl-1H-imidazol-4-yl)[(1R,5S,6r)-6-(2-thienylcarbonyl)-3-azabicyclo[3.1.0]hex-3-yl]methanone], on KDM5A, half-maximal inhibition (IC50) required 60 nM.

Molecule `Cc1onc([C@H]2[C@@H]3CN(C(=O)c4cc(C(C)C)[nH]n4)C[C@@H]32)c1-c1ccccn1` [Example 106, (5-isopropyl-1H-pyrazol-3-yl){(1R,5S,6r)-6-[5-methyl-4-(2-pyridinyl)-1,2-oxazol-3-yl]-3-azabicyclo[3.1.0]hex-3-yl}methanone] had an IC50 against KDM5A of 40 nM.

On to `Cc1c([C@H]2[C@@H]3CN(C(=O)c4cc(C(C)C)[nH]n4)C[C@@H]32)noc1C(F)F` [Example 104, {(1R,5S,6r)-6-[5-(difluoromethyl)-4-methyl-1,2-oxazol-3-yl]-3-azabicyclo[3.1.0]hex-3-yl}(5-isopropyl-1H-pyrazol-3-yl)methanone], for which half-maximal inhibition against KDM5A (IC50) was put at 40 nM.

Regarding `Cc1onc([C@H]2[C@@H]3CN(C(=O)c4cn(C(C)C)cn4)C[C@@H]32)c1-c1ccccc1` [Example 55, (1-isopropyl-1H-imidazol-4-yl)[(1R,5S,6r)-6-(5-methyl-4-phenyl-1,2-oxazol-3-yl)-3-azabicyclo[3.1.0]hex-3-yl]methanone], on KDM5A, 20 nM corresponded to half-maximal inhibition (IC50).

As for `CC(C)c1cc(C(=O)N2C[C@@H]3[C@H](C2)[C@H]3c2nnn[nH]2)n[nH]1` [Example 134, (5-isopropyl-1H-pyrazol-3-yl)[(1R,5S,6r)-6-(1H-tetrazol-5-yl)-3-azabicyclo[3.1.0]hex-3-yl]methanone], the IC50 on KDM5A was 4 nM.

On KDM5A, `Cc1cc([C@H]2[C@@H]3CN(C(=O)c4cn(C(C)C)cn4)C[C@@H]32)no1` [Example 56, (1-isopropyl-1H-imidazol-4-yl)[(1R,5S,6r)-6-(5-methyl-1,2-oxazol-3-yl)-3-azabicyclo[3.1.0]hex-3-yl]methanone] showed a half-maximal inhibitory concentration (IC50) of 200 nM.

The molecule `Cc1cc([C@H]2[C@@H]3CN(C(=O)c4cc(C(C)C)[nH]n4)C[C@@H]32)no1` [Example 103, (5-isopropyl-1H-pyrazol-3-yl)[(1R,5S,6r)-6-(5-methyl-1,2-oxazol-3-yl)-3-azabicyclo[3.1.0]hex-3-yl]methanone] gave an IC50 at KDM5A of 200 nM.

For `CC(C)c1cc(C(=O)N2C[C@@H]3[C@H](C2)[C@H]3C(=O)N(C)C2(C)CC2)n[nH]1` [Example 138, (1R,5S,6r)-N-methyl-N-(1-methylcyclopropyl)-3-[5-(propan-2-yl)-1H-pyrazole-3-carbonyl]-3-azabicyclo[3.1.0]hexane-6-carboxamide], the IC50 against KDM5A came to 800 nM.
